According to patent US7875621B2, “Substituted 2-alkyl quinazolinone derivatives as PARP inhibitors” (Janssen Pharmaceutica NV, priority 2004, dated 2011):
Read-outs that look alike come from different tables or passages of the source.

What was measured:
[1] = biological target: T1, TANK-2 enzyme (Homo sapiens, UniProt Q9H2K2); assay: In vitro scintillation proximity assay (SPA) for TANK-2 inhibitory activity; format: biochemical
T1 construct: inferred from capture on Ni-coated flash plate; made in house
T1 sequence (Q9H2K2 1-1166): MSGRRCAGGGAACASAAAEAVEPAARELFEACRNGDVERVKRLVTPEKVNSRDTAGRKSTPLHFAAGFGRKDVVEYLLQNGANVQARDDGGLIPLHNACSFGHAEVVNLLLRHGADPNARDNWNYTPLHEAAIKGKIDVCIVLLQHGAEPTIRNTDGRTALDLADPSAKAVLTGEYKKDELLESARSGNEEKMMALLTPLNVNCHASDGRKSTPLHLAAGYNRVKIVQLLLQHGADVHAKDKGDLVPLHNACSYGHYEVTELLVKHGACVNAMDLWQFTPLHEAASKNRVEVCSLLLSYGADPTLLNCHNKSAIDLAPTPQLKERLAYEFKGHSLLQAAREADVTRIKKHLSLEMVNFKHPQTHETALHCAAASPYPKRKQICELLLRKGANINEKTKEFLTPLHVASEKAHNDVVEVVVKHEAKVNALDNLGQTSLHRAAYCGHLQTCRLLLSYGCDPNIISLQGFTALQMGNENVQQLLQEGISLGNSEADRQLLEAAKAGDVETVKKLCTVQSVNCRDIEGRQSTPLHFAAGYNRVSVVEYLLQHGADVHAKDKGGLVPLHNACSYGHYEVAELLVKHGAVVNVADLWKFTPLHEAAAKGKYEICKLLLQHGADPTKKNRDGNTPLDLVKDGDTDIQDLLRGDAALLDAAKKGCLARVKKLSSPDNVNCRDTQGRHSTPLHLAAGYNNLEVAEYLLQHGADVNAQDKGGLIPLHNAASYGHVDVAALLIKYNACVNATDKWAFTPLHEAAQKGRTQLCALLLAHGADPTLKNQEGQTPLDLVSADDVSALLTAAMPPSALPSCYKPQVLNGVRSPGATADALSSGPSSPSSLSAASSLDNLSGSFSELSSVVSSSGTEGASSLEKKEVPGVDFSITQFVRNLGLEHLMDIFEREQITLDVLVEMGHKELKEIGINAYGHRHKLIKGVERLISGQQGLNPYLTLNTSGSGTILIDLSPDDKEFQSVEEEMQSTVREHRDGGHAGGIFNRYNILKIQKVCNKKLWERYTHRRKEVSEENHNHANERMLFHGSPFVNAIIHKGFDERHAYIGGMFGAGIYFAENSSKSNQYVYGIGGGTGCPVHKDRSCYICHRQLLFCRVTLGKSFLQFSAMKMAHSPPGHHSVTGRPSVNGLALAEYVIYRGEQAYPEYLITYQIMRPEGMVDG
Method: In Vitro Scintillation Proximity Assay (SPA) for TANK-2 Inhibitory Activity
Compounds of the present invention were tested in an in vitro assay based on SPA technology with Ni Flash plates (96 or 384 well).
In principle, the assay relies upon SPA technology for the detection of auto-poly(ADP-ribosyl)ation of TANK-2 protein using [^3H]-nicotinamide adenine dinucleotide ([^3H]-NAD^+) as ADP-ribosyl donor.
A stock solution of [^3H]-NAD^+/NAD was made by adding 64.6 μl of [^3H]-NAD^+ (0.1 mCi/ml, supplier: Perkin Elmer) and 46.7 μl NAD-stock (10.7 mM, stored at −20° C., supplier Roche) to 1888.7 μl assay buffer (60 mM Tris/HCl, pH 7.4; 0.9 mM DTT; 6 mM MgCl2). The TANK-2 enzyme was produced as described in EP1238063. 60 μl of assay buffer, together with 1 μl of compound in DMSO, 20 μl of [^3H]-NAD^+/NAD and 20 μl of TANK-2 enzyme (final concentration 6 μg/ml) was added per well into a 96-well Ni-coated flash plate (Perkin Elmer). After incubation of the mixture for 120 min. at room temperature, the reaction was terminated by adding 60 μl of stopsolution (42.6 mg NAD in 6 ml H2O). The plates were covered with a plate sealer and placed in a TopCountNXT™ (Packard) for scintillation counting. Values were expressed as counts per minute (cpm). For each experiment, controls (containing TANK-2 enzyme and DMSO without compound), a blank incubation (containing DMSO but no TANK-2 enzyme or compound) and samples (containing TANK-2 enzyme and compound dissolved in DMSO) were run in parallel. All compounds tested were dissolved and eventually further diluted in DMSO. In first instance, compounds were tested at a concentration of 10^−5M. […] In each test, the blank value was subtracted from both the control and the sample values. The control sample represented maximal TANK-2 enzyme activity. For each sample, the amount of cpm was expressed as a percentage of the mean cpm value of the controls. When appropriate, IC50-values (concentration of the drug, needed to reduce the TANK-2 enzyme activity to 50% of the control) were computed using linear interpolation between the experimental points just above and below the 50% level. Herein the effects of test compounds are expressed as pIC50 (the negative log value of the IC50-value). As reference compounds, 3-aminobenzamide and 4-amino-1,8-naphtalimide were included to validate the SPA assay. Herein the assay was described using 96-well plates. In the assay using 384-well plates the same final concentrations were used and volumes were adapted.

[2] = auto-poly(ADP-ribosyl)ation, [3H]-NAD+, 96- or 384-well Ni Flash plates, read-out: in vitro SPA TANK-2 pIC50 (converted)

Row | Compound | IC50 [1, 2] | melting point | IC50 [1]
1 | O=C(NC1CCN(CCCC2NC(=O)c3ccccc3N2)CC1)c1ccccc1 (stereo not drawn) [Compound 8] | > 10 µM |  | 
2 | O=C1NC(CCN2CCC3(CC2)C(=O)NCN3c2ccccc2)Nc2ccccc21 (stereo not drawn) [Compound 6] | 7.43 µM |  | 
3 | O=C(CC1CCN(CCc2nc3ccccc3c(=O)[nH]2)CC1)c1ccc(F)cc1 [Compound 3] | 2.48 µM | 159.1 °C | 
4 | O=C1NC(CCCN2CCC(n3c(=O)[nH]c4ccccc43)CC2)Nc2ccccc21 (stereo not drawn) [Compound 7] | < 10 µM |  | 
5 | NC(=O)C1(c2ccccc2)CCN(CCCc2nc3ccccc3c(=O)[nH]2)CC1 [Compound 4] | > 10 µM | 138.9 °C | 
6 | O=C1NCN(c2ccccc2)C12CCN(CCCc1nc3ccccc3c(=O)[nH]1)CC2 [Compound 2] | > 10 µM |  | 
7 | O=C1NC(CCN2CCC(n3c(=O)[nH]c4ccccc43)CC2)Nc2ccccc21 (stereo not drawn) [Compound 13] |  |  | 0.938 µM
8 | NC(=O)C1(c2ccccc2)CCN(CCCC2NC(=O)c3ccccc3N2)CC1 (stereo not drawn) [Compound 5] | > 10 µM | 216.1 °C | 

The next lines start with results.

Row | IC50 [1, 2] | Compound | melting point | IC50 [1]
9 | > 10 µM | O=C(c1ccc(F)cc1)C1CCN(CCCc2nc3ccccc3c(=O)[nH]2)CC1 [Compound 14] |  | 
10 | > 10 µM | O=C(c1ccc(F)cc1)C1CCN(CCc2nc3ccccc3c(=O)[nH]2)CC1 [Compound 9] |  | 
11 | > 10 µM | NC(=O)C1(N2CCOCC2)CCN(CCCc2nc3ccccc3c(=O)[nH]2)CC1 [Compound 11] |  | 
12 | > 10 µM | O=C(NC1CCN(CCCc2nc3ccccc3c(=O)[nH]2)CC1)c1ccccc1 [Compound 12] |  | 
